Test system: 855422-203-R-J1-PDC complex spheroid viability
Assay: Anticancer human tumor 855422-203-R-J1-PDC patient-derived bladder carcinoma cell line growth inhibition [POLQ]
Conditions: for IC50: curve of first compound; for viability, T/C: stronger effect = lower value
Description: Multicellular complex tumor spheroid response to Polymerase (POL) inhibitors (novobiocin, ART-558, RP6685) in combination with a variety of drugs and investigational agents in selected tumor cell lines
The POL inhibitors (novobiocin, ART-558, and RP6685) were evaluated both individually and in combination with standard of care and investigational anticancer small molecules within a complex spheroid model of solid tumors. . Complex spheroids include a stromal component modeled by human endothelial cells (HUVEC) and fibroblasts modeled by human mesenchymal stem cells (MSCs). The concentration ranges selected for each drug and investigational agent were based upon clinically achievable concentrations if the clinical Cmax of the agent was known.
Compounds. The drugs and investigational agents: novobiocin (NSC847541), ART-558 (NSC835418), RP-6685 (NSC848927), peposertib (NSC802822), ceralasertib (NSC780249), elimusertib (NSC800525), camonsertib (NSC841442), AZD-1390 (NSC803789), olaparib (NSC753686), talazoparib (NSC767125), rucaparib (NSC756644), sotorasib (NSC818433), MRTX-1133 (NSC836407), SN-38 (NSC673596), topotecan (NSC609699), epotoside (NSC141540), doxorubicin (NSC123127), gemcitabine (NSC613327), 5-fluorouracil (NSC19893), paclitaxel (NSC125973), vemurafenib (NSC761431), MSA-2 (NSC828583), SN-011 (NSC837082), adavosertib (NSC754352), prexasertib (NSC758257), carboplatin (NSC241240) and oxaliplatin (NSC266046), were obtained from the National Cancer Institute (NCI) Developmental Therapeutics Program Chemical Repository (21). The FDA-approved anticancer drug set is available from the Developmental Therapeutics Program at https://dtp.cancer.gov/organization/dscb/obtaining/. […] The stock solutions were prepared in dimethyl sulfoxide (DMSO, Sigma-Aldrich, St. Louis, MO, cat. D2650), except for the platinum compounds which were prepared in saline (Quality Biological, Gaithersburg, MD, cat. 114-055-101), at 800-fold the tested concentration and stored at -70 degrees C prior to their use. All drugs and investigational agents were tested over a range starting from a high concentration at or near the clinical Cmax and decreasing in half-log increments. If the clinical Cmax for an agent had not been determined, the highest concentration tested was 10 microM, except for SN-38, which was tested at a high concentration of 1 microM.
Cell Culture. All cells were maintained in an incubator at 37 degrees C and 5% CO2 with 95% humidity. The PDC lines were cultured according to standard operating procedures established by the NCI PDMR (https://pdmr.cancer.gov). Table 3 of the manuscript, lists the cell lines along with the number of the three cell types plated to form the mct-spheroids and media for tumor cell growth. After thawing, all PDC lines, except 997537-175-T-J1-PDC and 415267-285-R-J2-PDC, were cultured in Matrigel-coated flasks prepared with a working solution of 1X Ham's F-12 nutrient mix, without supplementation (Thermo Fisher Scientific, cat. 11765054), 100 U/mL penicillin-streptomycin (Thermo Fisher Scientific, cat. 15140122), and 2.5% Matrigel (Corning Inc., Corning, NY, cat. 354248) for the first three passages. The two PDC lines 997537-175-T-J1-PDC and 415267-285-R-J2-PDC were cultured on uncoated flasks. The 857933-349-R-J2-PDC line was cultured in 6C/Colon 1B media containing advanced DMEM/F-12 (Thermo Fisher Scientific, cat. 12634028), 10 mM HEPES (Thermo Fisher Scientific, cat. 15630080), 1X GlutaMAX supplement (Thermo Fisher Scientific, cat. 35050061), 0.1 mg/mL primocin (InvivoGen, San Diego, CA, cat. ant-pm-2), 10% defined fetal bovine serum, heat inactivated (HyClone Laboratories Inc., Logan, UT, cat. SH30070.03HI), 50% L-WRN conditioned media (ATCC, cat. CRL-3276), 1.25 mM N-Acetyl-L-cysteine (Sigma-Aldrich, cat. A9165), 10 mM nicotinamide (Sigma-Aldrich, cat. N0636), 1X B-27 supplement (Thermo Fisher Scientific, cat. 17504044), 1X N-2 supplement (Thermo Fisher Scientific, cat. […]

[1] = second compound 0.0316 µM, first compound 0.0316 µM
[2] = second compound 0.0316 µM, first compound 0.1 µM
[3] = second compound 0.0316 µM, first compound 0.316 µM
[4] = second compound 0.0316 µM, first compound 1 µM
[5] = second compound 0.0316 µM, first compound 3.16 µM
[6] = second compound 0.0316 µM, first compound 10 µM
[7] = second compound 0.1 µM, first compound 0.0316 µM
[8] = second compound 0.1 µM, first compound 0.1 µM
[9] = second compound 0.1 µM, first compound 0.316 µM
[10] = second compound 0.1 µM, first compound 1 µM
[11] = second compound 0.1 µM, first compound 3.16 µM
[12] = second compound 0.1 µM, first compound 10 µM
[13] = second compound 0.316 µM, first compound 0.0316 µM
[14] = second compound 0.316 µM, first compound 0.1 µM
[15] = second compound 0.316 µM, first compound 0.316 µM
[16] = second compound 0.316 µM, first compound 1 µM
[17] = second compound 0.316 µM, first compound 3.16 µM
[18] = second compound 0.316 µM, first compound 10 µM
[19] = second compound 1 µM, first compound 0.0316 µM
[20] = second compound 1 µM, first compound 0.1 µM
[21] = second compound 1 µM, first compound 0.316 µM
[22] = second compound 1 µM, first compound 1 µM
[23] = second compound 1 µM, first compound 3.16 µM
[24] = second compound 1 µM, first compound 10 µM
[25] = second compound 3.16 µM, first compound 0.0316 µM
[26] = second compound 3.16 µM, first compound 0.1 µM
[27] = second compound 3.16 µM, first compound 0.316 µM
[28] = second compound 3.16 µM, first compound 1 µM
[29] = second compound 3.16 µM, first compound 3.16 µM
[30] = second compound 3.16 µM, first compound 10 µM
[31] = second compound 10 µM, first compound 0.0316 µM
[32] = second compound 10 µM, first compound 0.1 µM
[33] = second compound 10 µM, first compound 0.316 µM
[34] = second compound 10 µM, first compound 1 µM
[35] = second compound 10 µM, first compound 3.16 µM
[36] = second compound 10 µM, first compound 10 µM
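Note: spheroids exposed to compounds for seven days before readout.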

CCCS(=O)(=O)Nc1ccc(F)c(C(=O)c2c[nH]c3ncc(-c4ccc(Cl)cc4)cc23)c1F + Nc1ccc(C#CCN(C(=O)Cc2ncc(C(F)(F)F)cc2C(F)(F)F)c2ccc(F)cc2)nn1
IC50 (second compound 0.0316 µM): 5.93 µM | IC50 (second compound 0.1 µM): 5.88 µM | IC50 (second compound 0.316 µM): 6.2 µM | IC50 (second compound 1 µM): 5.98 µM | IC50 (second compound 3.16 µM): 6.02 µM | IC50 (second compound 10 µM): 5.89 µM | viability, T/C [1]: 101% | viability, T/C [2]: 116% | viability, T/C [3]: 92.3% | viability, T/C [4]: 103% | viability, T/C [5]: 112% | viability, T/C [6]: 4.15% | viability, T/C [7]: 99% | viability, T/C [8]: 117% | viability, T/C [9]: 109% | viability, T/C [10]: 107% | viability, T/C [11]: 103% | viability, T/C [12]: 4.49% | viability, T/C [13]: 116% | viability, T/C [14]: 113% | viability, T/C [15]: 93.1% | viability, T/C [16]: 106% | viability, T/C [17]: 109% | viability, T/C [18]: 9.19% | viability, T/C [19]: 106% | viability, T/C [20]: 106% | viability, T/C [21]: 96.2% | viability, T/C [22]: 106% | viability, T/C [23]: 109% | viability, T/C [24]: 5.86% | viability, T/C [25]: 93.5% | viability, T/C [26]: 108% | viability, T/C [27]: 101% | viability, T/C [28]: 101% | viability, T/C [29]: 103% | viability, T/C [30]: 9.79% | viability, T/C [31]: 94% | viability, T/C [32]: 102% | viability, T/C [33]: 101% | viability, T/C [34]: 112% | viability, T/C [35]: 99.8% | viability, T/C [36]: 7.62%

CNCc1ccc(-c2[nH]c3cc(F)cc4c3c2CCNC4=O)cc1 + Nc1ccc(C#CCN(C(=O)Cc2ncc(C(F)(F)F)cc2C(F)(F)F)c2ccc(F)cc2)nn1
IC50 (second compound 0.0316 µM): > 10 µM | IC50 (second compound 0.1 µM): > 10 µM | IC50 (second compound 0.316 µM): > 10 µM | IC50 (second compound 1 µM): > 10 µM | IC50 (second compound 3.16 µM): > 10 µM | IC50 (second compound 10 µM): > 10 µM | viability, T/C [1]: 94.5% | viability, T/C [2]: 131% | viability, T/C [3]: 102% | viability, T/C [4]: 102% | viability, T/C [5]: 106% | viability, T/C [6]: 116% | viability, T/C [7]: 97.8% | viability, T/C [8]: 154% | viability, T/C [9]: 112% | viability, T/C [10]: 86% | viability, T/C [11]: 99.2% | viability, T/C [12]: 115% | viability, T/C [13]: 100% | viability, T/C [14]: 121% | viability, T/C [15]: 108% | viability, T/C [16]: 91.4% | viability, T/C [17]: 100% | viability, T/C [18]: 119% | viability, T/C [19]: 90.9% | viability, T/C [20]: 115% | viability, T/C [21]: 91.4% | viability, T/C [22]: 104% | viability, T/C [23]: 118% | viability, T/C [24]: 112% | viability, T/C [25]: 94.9% | viability, T/C [26]: 119% | viability, T/C [27]: 101% | viability, T/C [28]: 97.3% | viability, T/C [29]: 101% | viability, T/C [30]: 104% | viability, T/C [31]: 98.3% | viability, T/C [32]: 102% | viability, T/C [33]: 107% | viability, T/C [34]: 100% | viability, T/C [35]: 110% | viability, T/C [36]: 97.8%

— PubChem BioAssay AID1963838 (Molecular Pharmacology Branch, DTP, NCI, 2024)
